# Results from US20110123483A1, “HMGB1 FOR CANCER TREATMENT” (DEUTSCHES KREBSFORSCHUNGSZENTRUM, priority 2009, published 2011).
# Tests used:
# NCH421 K cells = assay: Propidiumiodide (PI) uptake by FACS analysis; assay type: cell-based; details: 80 nM or 600 nM (FIG. 12C)
# [1] = test system: non-immortalized human astrocytic cells; assay: Cytotoxicity assay, cell survival by crystal violet staining; assay type: cell-based; details: 72 h (FIG. 1B)
# Method: U251 glioblastoma cells and non-immortalized human astrocytic cells (ScienCell, USA) were maintained in DMEM (Life Technologies) containing 10% FCS, 4.5 g/L glucose, glutamine, 110 mg/L sodium pyruvate, and 1% penicillin-streptomycin (Life Technologies) and in astrocyte medium (ScienCell) containing 2% FBS (fetal bovine serum) and 1% penicillin-streptomycin at 37° C. and 5% CO2. For the generation of pseudo rho zero cells (0.0), U251 MG cells were treated with low dose (250 ng/ml) ethidiumbromide for 3 months. The cells were supplemented with DMEM (10% FCS, 1% P/S) containing 50 μg/ml L-pyruvate and 5 mg/ml uridine (King and Attardi, 1989).
# (§1) 20,000 U251MG glioblastoma cells or human astrocytic cells (ScienCell) were plated into 96-well plates. After 24 h cells were treated with rhHMGB1 (Sigma Aldrich) or rat recombinant HMGB1 (generously provided by Angelika Bierhaus, Heidelberg, Germany), and TRAIL (for 24 h) or Temozolomide (for 72 h) alone or in combination, respectively. Cell survival was measured by crystal violet staining as described previously (Gdynia et al., 2007). Cell proliferation was assessed by seeding 50,000 U251 MG cells in 6 cm culture plates and treatment with rhHMGB1, followed by counting the cells in a Neubauer chamber at day 0, 2, 4 and 5.
# U251MG glioma cells = assay: Cell proliferation, counting in a Neubauer chamber; assay type: cell-based, human; details: increasing concentrations, several days (FIG. 1A)
# Method: as §1
# JNK1/2 = assay: Western blot analysis of JNK1/2 phosphorylation; assay type: cell-based, human; details: 24 h (FIG. 3C)
# Method: The U251 MG tumor cells were lysed in lysis buffer containing 20 mmol/L Tris-HCl (pH 7.4), 137 mmol/L NaCl, 10% (v/v) glycerine, 1% Triton X-100, 2 mmol/L EDTA, 100 mmol/L phenylmethylsulfonyl fluoride, and protease inhibitors (Complete mini; Roche Molecular Biochemicals). For the detection of phosphoprotein levels, 10 mmol/L NaPPi, 50 mmol/L NaF, and 20 mmol/L NaVO4 were added to the lysis buffer. After 15 min incubation on ice, the lysates were centrifuged at 14,000×g for 10 min. The total protein concentration of the lysates was measured using the Bradford assay (Bio-Rad). Soluble protein (25-100 μg per lane) was separated on 10% to 15% polyacrylamide gels and blotted onto nitrocellulose by standard procedures. […]
# U251MG xenograft tumors = assay: Subcutaneous U251MG xenograft tumors in CD1 nude mice, systemic treatment; assay type: in vivo
# Method: All animal work was carried out in accordance with the NIH guidelines Guide for the Care and Use of Laboratory Animals. Six-week-old male athymic CD1 nude mice (Charles River, n=8) were injected subcutaneously with 7.5×10^6 U251MG cells in 100 μl PBS in the right flank using a 30-gauge needle. After 3 weeks, treatment of the xenograft tumors was initiated with 10 μg rhHMGB1 in 500 μl PBS or PBS only (control group) by daily intraperitoneal injections at the contralateral side for 6 weeks. Tumor volume was measured by a calliper using the ellipsoid formula (length×width×height×½) as described (Tomayko and Reynolds, 1989). After 6 weeks of treatment the animals were sacrificed and the paraffin embedded tumor sections were subjected to immunofluorescence analysis as outlined below.
# Paraffin embedded slices of mouse tissue or xenograft tumors were dewaxed and dehydrated using xylene and ethanol, followed by heat-induced antigen retrieval using 10 mM citrate buffer, pH 6.0, for 3×5 min in a cooker. The sections were incubated with 1:10 COX IV (Alexa Fluor® 488 conjugate) antibody over night at 4° C., washed with PBS and covered with Vectashield® mounting medium (H-1200, Vector Laboratories Inc., 94010 CA, USA) containing DAPI (1.5 μg/ml).
substance,measurement,setting,value
rhHMGB1: recombinant human High Mobility Group B1 protein (Sigma Aldrich),Propidiumiodide (PI) uptake compared to untreated control,NCH421 K cells,evidently increased
same,susceptibility to rhHMGB1-induced cell death,[1],not human non-immortalized astrocytes were susceptible
same,induction of cell death,U251MG glioma cells,induction of cell death even at low nanomolar concentrations
same,tumor cell proliferation,U251MG glioma cells,strong inhibition
same,phosphorylation of c-Jun N-terminal kinase 1/2 (JNK),JNK1/2,continuous and dose dependent phosphorylation
same,tumor size versus control group,"U251MG xenograft tumors; 10 μg daily intraperitoneal, after six weeks (FIG. 1D)",significantly smaller tumors than the control group
same,formation of megamitochondria in xenograft tumor tissue,U251MG xenograft tumors; after a 6 week systemic treatment (FIG. 9),formation of megamitochondria was also observed
